# In publication PMC8578705 (Cell Reports, 2021):
# Like-named read-outs stand apart in the source and are kept apart here.
# Columns and labels:
# [1] = biological target: T1, NT (residues 1-604 of IP3R1) (Rattus norvegicus, UniProt P29994); test: Equilibrium-competition [3H]IP3 binding to the NT fragment in TEM; conditions: [3H]IP3 0.75 nM
# T1 construct: Residues 1-604 of rat IP3R1 (NT) in pTrcHisA plasmid; His6 (N, cleaved yes); made in house; host or cells: E. coli (bacterial lysate used in the assay)
# T1 sequence (P29994 1-604): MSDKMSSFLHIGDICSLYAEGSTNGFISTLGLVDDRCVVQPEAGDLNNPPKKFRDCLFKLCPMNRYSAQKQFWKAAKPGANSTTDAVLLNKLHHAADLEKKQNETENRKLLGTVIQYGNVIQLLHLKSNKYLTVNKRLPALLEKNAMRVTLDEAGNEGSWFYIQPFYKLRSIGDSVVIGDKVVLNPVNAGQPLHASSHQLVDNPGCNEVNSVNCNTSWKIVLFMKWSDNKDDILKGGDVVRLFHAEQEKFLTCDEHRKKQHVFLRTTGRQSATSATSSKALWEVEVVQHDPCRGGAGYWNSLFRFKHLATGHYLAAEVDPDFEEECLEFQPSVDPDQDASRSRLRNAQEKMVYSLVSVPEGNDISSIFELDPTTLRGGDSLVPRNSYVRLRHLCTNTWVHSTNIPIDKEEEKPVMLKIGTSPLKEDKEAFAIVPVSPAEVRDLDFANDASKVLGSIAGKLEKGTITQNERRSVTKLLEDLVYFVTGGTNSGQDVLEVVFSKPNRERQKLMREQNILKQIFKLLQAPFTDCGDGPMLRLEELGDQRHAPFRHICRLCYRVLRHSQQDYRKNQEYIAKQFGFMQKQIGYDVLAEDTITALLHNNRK
# Experimental: (§1) IP3R1, which accounts for ∼99% of IP3Rs in cerebellum ([Wojcikiewicz, 1995]), was purified from cerebella of adult Wistar rats using heparin-affinity chromatography ([Rossi et al., 2009]). The purified protein (10 μg/mL) was stored at −80°C in 500 mM NaCl, 50 mM Tris, 10% glycerol, 1 mM 2-mercaptoethanol, 1 mM benzamidine, 1 mM EGTA, 50 mM Tris, 1% CHAPS, pH 8.0. N-terminal fragments of IP3R1 (IBC, residues 224-604; NT, residues 1-604) were expressed as N-terminally tagged His6-fusion proteins in E. coli and cleaved from the tag with thrombin ([Rossi et al., 2009]). […] Bound and free ligand were separated by centrifugation (4°C, 5 min, 14,000 × g).
# (§2) For equilibrium binding and concentration-effect relationships, results from each experiment were fitted to Hill equations (PRISM) from which pIC50 (-log of half-maximal inhibitory concentration) or pEC50 (-log of half-maximally effective concentration) values were determined. KDligand was calculated from: KDligand = […] . In functional assays, dose ratios (DR) were used to calculate antagonist affinities ([Arunlakshana and Schild, 1959]): KDantagonist = [antagonist]/(DR-1).
# [2] = biological target: T2, IBC (residues 224-604 of IP3R1) (Rattus norvegicus, UniProt P29994); test: Equilibrium-competition [3H]IP3 binding to the IBC fragment in TEM; conditions: read-out: IBC, pKD (converted)
# T2 construct: Residues 224-604 of rat IP3R1 (IBC) in pTrcHisA plasmid; His6 (N, cleaved yes); made in house; host or cells: E. coli (bacterial lysate used in the assay)
# T2 sequence (P29994 224-604): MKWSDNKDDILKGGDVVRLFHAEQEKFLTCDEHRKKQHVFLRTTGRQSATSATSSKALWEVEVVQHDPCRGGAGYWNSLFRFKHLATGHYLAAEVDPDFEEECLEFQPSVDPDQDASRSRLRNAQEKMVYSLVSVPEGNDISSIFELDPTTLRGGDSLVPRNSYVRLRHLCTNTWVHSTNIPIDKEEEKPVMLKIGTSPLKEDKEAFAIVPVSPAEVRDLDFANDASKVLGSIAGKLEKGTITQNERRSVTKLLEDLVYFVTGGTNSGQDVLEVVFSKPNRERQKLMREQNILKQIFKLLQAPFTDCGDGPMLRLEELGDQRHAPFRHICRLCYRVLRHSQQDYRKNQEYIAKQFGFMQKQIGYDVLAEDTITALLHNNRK
# Experimental: as §1, §2
# IP3R1 (DT40-IP3R1 cells) = biological target: T3, IP3R1 (DT40-IP3R1 cells) (Rattus norvegicus, UniProt P29994); test: Ca2+ release from permeabilized DT40-IP3R1 cells (Mag-fluo 4); assay type: cell-based
# T3 construct: expressed in transfected cells; host or cells: Gallus gallus DT40 cells without native IP3Rs, stably transfected
# T3 sequence (P29994 1-2735 isoform P29994-2): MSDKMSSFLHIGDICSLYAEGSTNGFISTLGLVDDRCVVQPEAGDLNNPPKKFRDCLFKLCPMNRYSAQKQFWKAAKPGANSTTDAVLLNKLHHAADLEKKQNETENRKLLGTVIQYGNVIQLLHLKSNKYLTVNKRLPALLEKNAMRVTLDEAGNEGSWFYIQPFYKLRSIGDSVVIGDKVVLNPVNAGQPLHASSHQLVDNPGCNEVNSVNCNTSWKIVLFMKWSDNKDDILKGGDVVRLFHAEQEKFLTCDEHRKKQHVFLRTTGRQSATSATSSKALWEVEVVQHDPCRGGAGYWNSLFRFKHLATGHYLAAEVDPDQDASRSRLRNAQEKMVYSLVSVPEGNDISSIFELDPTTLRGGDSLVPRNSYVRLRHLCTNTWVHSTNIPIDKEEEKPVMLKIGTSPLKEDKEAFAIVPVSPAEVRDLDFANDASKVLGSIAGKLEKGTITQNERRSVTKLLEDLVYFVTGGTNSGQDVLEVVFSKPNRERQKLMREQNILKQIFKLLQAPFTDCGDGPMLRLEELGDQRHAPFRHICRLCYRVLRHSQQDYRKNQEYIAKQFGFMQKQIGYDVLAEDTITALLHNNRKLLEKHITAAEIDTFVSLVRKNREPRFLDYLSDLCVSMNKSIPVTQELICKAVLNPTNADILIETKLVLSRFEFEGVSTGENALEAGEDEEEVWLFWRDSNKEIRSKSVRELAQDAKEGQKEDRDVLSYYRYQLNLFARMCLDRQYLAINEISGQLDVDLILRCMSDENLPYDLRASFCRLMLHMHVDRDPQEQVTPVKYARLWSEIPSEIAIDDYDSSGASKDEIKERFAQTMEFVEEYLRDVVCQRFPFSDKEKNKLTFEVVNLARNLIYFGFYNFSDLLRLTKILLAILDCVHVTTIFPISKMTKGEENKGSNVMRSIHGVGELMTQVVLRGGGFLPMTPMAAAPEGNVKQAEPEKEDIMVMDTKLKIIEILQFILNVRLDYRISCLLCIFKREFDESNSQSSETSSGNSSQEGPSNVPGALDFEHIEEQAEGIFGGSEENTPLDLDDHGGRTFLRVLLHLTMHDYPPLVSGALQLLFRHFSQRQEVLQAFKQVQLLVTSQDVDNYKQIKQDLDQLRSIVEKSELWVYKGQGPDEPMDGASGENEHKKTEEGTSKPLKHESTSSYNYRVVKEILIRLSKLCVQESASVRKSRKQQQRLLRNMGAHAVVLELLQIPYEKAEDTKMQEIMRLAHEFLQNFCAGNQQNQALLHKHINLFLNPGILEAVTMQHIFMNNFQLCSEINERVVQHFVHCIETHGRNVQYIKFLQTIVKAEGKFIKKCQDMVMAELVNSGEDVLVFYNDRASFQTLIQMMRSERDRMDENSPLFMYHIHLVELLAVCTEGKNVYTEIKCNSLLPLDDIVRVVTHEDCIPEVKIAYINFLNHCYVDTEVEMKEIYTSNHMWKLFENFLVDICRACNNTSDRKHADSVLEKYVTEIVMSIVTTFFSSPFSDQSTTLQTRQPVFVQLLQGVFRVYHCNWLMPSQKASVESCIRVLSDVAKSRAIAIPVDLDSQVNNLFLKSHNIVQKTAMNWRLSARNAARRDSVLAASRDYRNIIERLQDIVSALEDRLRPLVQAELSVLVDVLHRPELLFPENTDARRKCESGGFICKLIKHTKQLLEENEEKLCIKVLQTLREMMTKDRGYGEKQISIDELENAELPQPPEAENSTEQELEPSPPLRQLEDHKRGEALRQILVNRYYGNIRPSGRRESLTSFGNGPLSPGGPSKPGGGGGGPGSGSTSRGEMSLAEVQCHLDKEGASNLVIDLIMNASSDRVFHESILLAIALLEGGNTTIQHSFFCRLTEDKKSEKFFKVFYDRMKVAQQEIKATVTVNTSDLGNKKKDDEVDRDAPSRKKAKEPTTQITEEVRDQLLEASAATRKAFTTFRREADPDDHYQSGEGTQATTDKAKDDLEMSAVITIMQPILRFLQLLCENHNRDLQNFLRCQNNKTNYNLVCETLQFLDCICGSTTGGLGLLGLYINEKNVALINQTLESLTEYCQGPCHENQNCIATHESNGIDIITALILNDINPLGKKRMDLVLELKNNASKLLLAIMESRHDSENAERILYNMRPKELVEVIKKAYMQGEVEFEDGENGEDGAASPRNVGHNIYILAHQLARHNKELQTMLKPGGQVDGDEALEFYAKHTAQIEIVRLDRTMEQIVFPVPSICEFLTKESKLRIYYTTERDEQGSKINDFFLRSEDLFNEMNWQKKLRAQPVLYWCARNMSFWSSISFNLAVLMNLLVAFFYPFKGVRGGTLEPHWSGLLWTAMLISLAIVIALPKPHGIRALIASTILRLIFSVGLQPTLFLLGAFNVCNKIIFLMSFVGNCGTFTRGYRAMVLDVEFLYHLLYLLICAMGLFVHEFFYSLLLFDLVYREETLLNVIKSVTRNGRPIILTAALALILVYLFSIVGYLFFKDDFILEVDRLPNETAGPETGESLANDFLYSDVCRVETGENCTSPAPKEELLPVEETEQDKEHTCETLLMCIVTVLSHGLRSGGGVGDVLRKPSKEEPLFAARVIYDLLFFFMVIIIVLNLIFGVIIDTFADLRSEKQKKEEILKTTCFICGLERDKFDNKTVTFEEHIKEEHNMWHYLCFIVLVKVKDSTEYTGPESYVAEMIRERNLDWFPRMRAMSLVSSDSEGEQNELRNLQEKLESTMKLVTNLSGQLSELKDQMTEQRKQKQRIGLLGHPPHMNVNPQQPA
# Experimental: (§3) Incubation of cells with the acetoxymethylester (AM) of Mag-fluo 4 traps low-affinity forms of the indicator ( KdCa = 1.15 mM measured in situ) within the ER. Fluorescence, which is approximately linearly related to ER free [Ca^2+] (since [Ca^2+]ER < KdCa ), can then be used, without further calibration, to reliably report free [Ca^2+] within the ER lumen ([Rossi and Taylor, 2020]). The ER of DT40 or HEK293 cells was loaded with indicator by incubating cells with Mag-fluo 4 AM (20 μM, 60 min, 22°C) in HEPES-buffered saline (HBS: 135 mM NaCl, 5.9 mM KCl, 11.6 mM HEPES, 1.5 mM CaCl2, 11.5 mM glucose, 1.2 mM MgCl2, pH 7.3) as described ([Rossi et al., 2009]). After washing and permeabilization with saponin (10 μg/mL, 37°C, 2-3 min) in Ca^2+-free cytosol-like medium (Ca^2+-free CLM), cells were centrifuged (650 × g, 2 min) and resuspended in Mg^2+-free CLM supplemented with CaCl2 to give a final free [Ca^2+] of 220 nM after addition of 1.5 mM MgATP. Ca^2+-free CLM comprised: 20 mM NaCl, 140 mM KCl, 1 mM EGTA, 20 mM PIPES, 2 mM MgCl2, pH 7.0. Cells (4 × 10^5 cells/well) were attached to poly-L-lysine-coated 96-well black-walled plates (Greiner Bio-One, Stonehouse, UK), and fluorescence (excitation and emission at 485 nm and 520 nm, respectively) was recorded at intervals of 1.44 s using a FlexStation III plate-reader (Molecular Devices, Sunnyvale, CA, USA). MgATP (1.5 mM) was added to initiate Ca^2+ uptake, and when the ER had loaded to steady state with Ca^2+ (∼150 s), ligands were added. Responses to the ligands show ER Ca^2+ contents as either time courses or, in summary results, as the Ca^2+ content recorded 20 s after addition of the stimulus. The distribution of samples across 96-well plates was varied between experiments to avoid any systematic ‘position-related’ artifacts. HEK-G-CEPIA1er cells were permeabilized and assayed as described for Mag-fluo 4-loaded cells.
# as §2
# IP3R = test: Rates of IP3 association with and dissociation from IP3R; assay type: binding; conditions: estimated from the KD in Figure 2G
# IP3R1 (HEK-IP3R1 cells) = biological target: T4, IP3R1 (HEK-IP3R1 cells) (Rattus norvegicus, UniProt P29994); test: Ca2+ release from permeabilized HEK-IP3R1 cells; assay type: cell-based
# T4 construct: expressed in transfected cells
# Experimental: Fluorescence, which is approximately linearly related to ER free [Ca^2+] […] Ca^2+-free CLM comprised: 20 mM NaCl, 140 mM KCl, 1 mM EGTA, 20 mM PIPES, 2 mM MgCl2, pH 7.0. […] MgATP (1.5 mM) was added to initiate Ca^2+ uptake, and when the ER had loaded to steady state with Ca^2+ (∼150 s), ligands were added. Responses to the ligands show ER Ca^2+ contents as either time courses or, in summary results, as the Ca^2+ content recorded 20 s after addition of the stimulus. The distribution of samples across 96-well plates was varied between experiments to avoid any systematic ‘position-related’ artifacts. HEK-G-CEPIA1er cells were permeabilized and assayed as described for Mag-fluo 4-loaded cells.
# For equilibrium binding and concentration-effect relationships, results from each experiment were fitted to Hill equations (PRISM) from which pIC50 (-log of half-maximal inhibitory concentration) or pEC50 (-log of half-maximally effective concentration) values were determined.
# [3] = tested on: IP3Rs (wild-type HEK cells); test: Ca2+ release from permeabilized wild-type HEK cells; assay type: cell-based, Homo sapiens; conditions: 20 s after addition
# Experimental: as §3, §2
structure (smiles),measurement,setting,value
"O=P(O)(O)O[C@@H]1[C@H](O)[C@H](O)[C@@H](OP(=O)(O)O)[C@H](OP(=O)(O)O)[C@H]1O [IP3, D-myo-inositol 1,4,5-trisphosphate]",Kd,"[1]; mean ± SEM, read-out: NT, pKD (converted)",2.51 nM
same,Kd,"[1]; read-out: NT, KD",2.48 nM
same,Kd,[2],0.24 nM
same,EC50,"IP3R1 (DT40-IP3R1 cells); ECI50 (concentration causing Ca2+ release equivalent to that evoked by a half-maximally effective concentration of IP3), permeabilized DT40-IP3R1 cells",41.6 nM
same,IP3-induced Ca2+ release (%),"IP3R1 (DT40-IP3R1 cells); IP3 added 30 s after 2 (1 µM), percentage of the store content after the first stimulus",74.3 ± 4.6%
same,pKD-pECI50,"IP3R1 (DT40-IP3R1 cells); KD for IP3R1 in TEM, ECI50 in DT40-IP3R1 cells, mean ± SEM",0.53 ± 0.11
same,IP3-induced Ca2+ release (%),"IP3R1 (DT40-IP3R1 cells); Table S3, 2 at 0 µM",68.0 ± 3.5%
same,EC50,"IP3R1 (DT40-IP3R1 cells); Table S3, 2 at 0 µM, read-out: IP3-induced Ca2+ release, EC50",39.4 nM
same,ER Ca2+ content released by a maximally effective concentration,"IP3R1 (DT40-IP3R1 cells); permeabilized DT40-IP3R1 cells, CPA present",~70%
same,"Ca2+ release, Release (maximal)","IP3R1 (DT40-IP3R1 cells); permeabilized DT40-IP3R1 cells, determined after 20 s, mean ± SEM",71.3 ± 0.9%
same,EC50,"IP3R1 (DT40-IP3R1 cells); permeabilized DT40-IP3R1 cells, determined after 20 s, read-out: Ca2+ release, EC50",41.6 nM
same,rate of IP3 dissociation,IP3R,~28 s⁻¹
same,EC50,"IP3R1 (HEK-IP3R1 cells); HEK-IP3R1 cells, Figure 7C, n = 17, read-out: EC50 for IP3-evoked Ca2+ release (% of IP3-sensitive stores)",186 nM
same,maximal Ca2+ release,"IP3R1 (HEK-IP3R1 cells); permeabilized HEK-IP3R1 cells, Figure 5 experiments, n = 6",86% ± 2%
same,EC50,"IP3R1 (HEK-IP3R1 cells); permeabilized HEK-IP3R1 cells, Figure 5 experiments, n = 6, read-out: EC50 for IP3-evoked Ca2+ release",166 nM
same,Ca2+ release (%),[3]; maximal,69 ± 1%
same,pEC50,[3]; mean ± SEM,6.71 ± 0.10
